Measured values as given in patent publication US20060004197A1, “Sulfonamide-based compounds as protein tyrosine kinase inhibitors” (priority 2004, published 2006).

Assays:
Format in all cases: biochemical
[1] = molecular target: T1, Recombinant human Src (Homo sapiens, UniProt P12931); assay: Src tyrosine kinase activity, poly E4Y / 32P-ATP phosphorylation assay; settings: for inhibition at 15 µg/mL: Table 6, Formula V compounds, compound at 15 μg/mL, read-out: % Inhibition at 15 μg/mL Src (%)
T1 construct: made in house; host or cells: baculovirus-insect cell system

[2] = molecular target: Recombinant Csk (Homo sapiens, UniProt P41240); assay: Csk tyrosine kinase activity, poly E4Y / 32P-ATP phosphorylation assay
[3] = molecular target: FGF receptor (FGFr); assay: FGFr tyrosine kinase activity, poly E4Y / 32P-ATP phosphorylation assay; settings: Table 2, Formula I compounds; NI = no inhibition at 100 μg/mL
[4] = Table 2, Formula I compounds, NI = no inhibition at 100 μg/mL
[5] = Table 3, Formula II compounds, NI = no inhibition at 100 μg/mL
[6] = poly E4Y / 32P-ATP, Formula IV compounds

T1 sequence (P12931 whole entry): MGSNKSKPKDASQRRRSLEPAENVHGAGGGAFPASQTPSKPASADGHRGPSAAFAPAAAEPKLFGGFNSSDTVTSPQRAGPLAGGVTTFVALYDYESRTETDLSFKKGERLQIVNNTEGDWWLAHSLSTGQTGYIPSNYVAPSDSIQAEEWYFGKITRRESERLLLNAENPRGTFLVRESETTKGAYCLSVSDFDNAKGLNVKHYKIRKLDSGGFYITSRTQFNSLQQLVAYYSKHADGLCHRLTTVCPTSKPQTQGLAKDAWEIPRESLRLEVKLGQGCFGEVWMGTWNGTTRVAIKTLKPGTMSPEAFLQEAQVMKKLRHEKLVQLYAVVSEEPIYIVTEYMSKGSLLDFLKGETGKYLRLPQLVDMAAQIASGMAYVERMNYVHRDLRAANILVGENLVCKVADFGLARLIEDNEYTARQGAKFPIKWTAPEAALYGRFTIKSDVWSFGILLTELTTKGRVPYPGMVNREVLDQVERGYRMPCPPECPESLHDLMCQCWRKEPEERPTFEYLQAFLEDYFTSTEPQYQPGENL

IC50 [1, 4]	IC50 [2, 4]	IC50 [3]	Compound	also measured
3.4 µM	10.8 µM	5.8 µM	COc1ccc(Sc2cc(NS(=O)(=O)c3ccc(C)cc3)c(NS(=O)(=O)c3ccc(C)cc3)cc2[N+](=O)[O-])cc1 [Compound 4a, N-[4-(4-methoxy-phenylsulfanyl)-5-nitro-2-(4-toluenesulfonylamino)-phenyl]-4-toluenesulfonamide]	–
7 µM	15 µM	20 µM	COc1ccccc1Sc1cc(NS(=O)(=O)c2ccc(C)cc2)c(NS(=O)(=O)c2ccc(C)cc2)cc1[N+](=O)[O-] [Compound 4b, N-[4-(2-methoxy-phenylsulfanyl)-5-nitro-2-(4-toluenesulfonylamino)-phenyl]-4-toluenesulfonamide]	–
3.5 µM	8.3 µM	7.5 µM	COc1cccc(Sc2cc(NS(=O)(=O)c3ccc(C)cc3)c(NS(=O)(=O)c3ccc(C)cc3)cc2[N+](=O)[O-])c1 [Compound 4c, N-[4-(3-methoxy-phenylsulfanyl)-5-nitro-2-(4-toluenesulfonylamino)-phenyl]-4-toluenesulfonamide]	–
5.5 µM	23.9 µM	23.9 µM	Cc1ccc(S(=O)(=O)Nc2cc(Sc3ccc(O)cc3)c([N+](=O)[O-])cc2NS(=O)(=O)c2ccc(C)cc2)cc1 [Compound 4d, N-[4-(4-hydroxy-phenylsulfanyl)-5-nitro-2-(4-toluenesulfonylamino)-phenyl]-4-toluenesulfonamide]	–
8 µM	23 µM	1.7 µM	Cc1ccc(S(=O)(=O)Nc2cc(Sc3ccc(Cl)cc3)c([N+](=O)[O-])cc2NS(=O)(=O)c2ccc(C)cc2)cc1 [Compound 4e, N-[4-(4-chloro-phenylsulfanyl)-5-nitro-2-(4-toluenesulfonylamino)-phenyl]-4-toluenesulfonamide]	–
2.5 µM	10.8 µM	10.8 µM	Cc1ccc(S(=O)(=O)Nc2cc(Sc3ccccc3Cl)c([N+](=O)[O-])cc2NS(=O)(=O)c2ccc(C)cc2)cc1 [Compound 4f, N-[4-(2-chloro-phenylsulfanyl)-5-nitro-2-(4-toluenesulfonylamino)-phenyl]-4-toluenesulfonamide]	–
1.6 µM	9.1 µM	5.8 µM	Cc1ccc(S(=O)(=O)Nc2cc(Sc3cccc(Cl)c3)c([N+](=O)[O-])cc2NS(=O)(=O)c2ccc(C)cc2)cc1 [Compound 4g, N-[4-(3-chloro-phenylsulfanyl)-5-nitro-2-(4-toluenesulfonylamino)-phenyl]-4-toluenesulfonamide]	–
1.8 µM	8.6 µM	7.8 µM	Cc1ccc(S(=O)(=O)Nc2cc(Sc3ccc(F)cc3)c([N+](=O)[O-])cc2NS(=O)(=O)c2ccc(C)cc2)cc1 [Compound 4h, N-[4-(4-fluoro-phenylsulfanyl)-5-nitro-2-(4-toluenesulfonylamino)-phenyl]-4-toluenesulfonamide]	–
1.7 µM	10.3 µM	5.1 µM	Cc1ccc(Sc2cc(NS(=O)(=O)c3ccc(C)cc3)c(NS(=O)(=O)c3ccc(C)cc3)cc2[N+](=O)[O-])cc1 [Compound 4i, N-[5-nitro-2-(4-toluenesulfonylamino)-4-(p-tolylsulfanyl)-phenyl]-4-toluenesulfonamide]	–
1.7 µM	12 µM	8.6 µM	Cc1ccc(S(=O)(=O)Nc2cc(Sc3ccccc3C)c([N+](=O)[O-])cc2NS(=O)(=O)c2ccc(C)cc2)cc1 [Compound 4j, N-[5-nitro-2-(4-toluenesulfonylamino)-4-(o-tolylsulfanyl)-phenyl]-4-toluenesulfonamide]	–
1.9 µM	9.4 µM	3.1 µM	Cc1ccc(S(=O)(=O)Nc2cc(Sc3cccc(C)c3)c([N+](=O)[O-])cc2NS(=O)(=O)c2ccc(C)cc2)cc1 [Compound 4k, N-[5-nitro-2-(4-toluenesulfonylamino)-4-(m-tolylsulfanyl)-phenyl]-4-toluenesulfonamide]	–
1 µM	5.4 µM	4.7 µM	Cc1ccc(S(=O)(=O)Nc2cc(Sc3c(C)cccc3C)c([N+](=O)[O-])cc2NS(=O)(=O)c2ccc(C)cc2)cc1 [Compound 4m, N-[4-(2,6-dimethyl-phenylsulfanyl)-5-nitro-2-(4-toluenesulfonylamino)-phenyl]-4-toluenesulfonamide]	–
1.3 µM	5.7 µM	4.3 µM	Cc1ccc(S(=O)(=O)Nc2cc(Sc3ccccc3C(C)C)c([N+](=O)[O-])cc2NS(=O)(=O)c2ccc(C)cc2)cc1 [Compound 4n, N-[4-(2-isopropyl-phenylsulfanyl)-5-nitro-2-(4-toluenesulfonylamino)-phenyl]-4-toluenesulfonamide]	–
1.2 µM	5.5 µM	–	Cc1ccc(S(=O)(=O)Nc2cc(SCc3ccccc3)c([N+](=O)[O-])cc2NS(=O)(=O)c2ccc(C)cc2)cc1 [Compound 4t, N-[4-benzylsulfanyl-5-nitro-2-(4-toluenesulfonylamino)-phenyl]-4-toluenesulfonamide]	–
–	–	–	Cc1ccc(S(=O)(=O)Nc2ccc(Cl)cc2NS(=O)(=O)c2ccc(C)cc2)cc1 [Compound 6, N-[4-chloro-2-(4-toluenesulfonylamino)-phenyl]-4-toluenesulfonamide]	IC50 [1, 5]: > 222 µM; IC50 [2, 5]: > 222 µM
–	–	–	COc1ccc(Oc2ccc(NS(=O)(=O)c3ccc([N+](=O)[O-])cc3)c(NS(=O)(=O)c3ccc([N+](=O)[O-])cc3)c2)cc1 [Compound 12r, N-[4-(4-methoxy-phenoxy)-2-(4-nitrobenzenesulfonylamino)-phenyl]-4-nitrobenzenesulfonamide]	IC50 [1, 5]: 6.6 µM; IC50 [2, 5]: > 167 µM
–	–	–	Cc1ccc(S(=O)(=O)Nc2ccc(-n3cnc4ccccc43)cc2NS(=O)(=O)c2ccc(C)cc2)cc1 [Compound 17b, N-[4-(benzimidazol-1-yl)-2-(4-toluenesulfonylamino)-phenyl]-4-toluenesulfonamide]	IC50 [1, 5]: 21 µM; IC50 [2, 5]: 83 µM
–	–	–	COc1ccc(Oc2ccc(NS(=O)(=O)c3ccc(C)cc3)c(OP(=O)(O)O)c2)cc1 [Compound 43, [5-(4-methoxy-phenoxy)-2-(4-toluenesulfonylamino)-phenyl]-phosphate]	IC50 [1, 6]: 13 µM; IC50 [2, 6]: > 215 µM
–	–	–	COC(=O)c1cc(Oc2ccc(OC)cc2)ccc1NS(=O)(=O)c1ccc(C)cc1 [Compound 67, methyl 5-(4-methoxy-phenoxy)-2-(4-toluenesulfonylamino)-benzoate]	IC50 [1, 6]: > 234 µM; IC50 [2, 6]: > 234 µM
–	–	–	COc1ccc(Oc2ccc3c(c2)n(S(=O)(=O)c2ccc(C)cc2)c(=O)n3S(=O)(=O)c2ccc(C)cc2)cc1 [Compound 72c, 5-(4-methoxy-phenoxy)-1,3-bis-(4-toluenesulfonyl)-1,3-dihydro-benzoimidazol-2-one]	inhibition at 15 µg/mL [1]: 22%
–	–	–	COc1ccc(Oc2ccc3c(c2)NS(=O)(=O)N3)cc1 [Compound 72d, 5-(4-methoxy-phenoxy)-1,3-dihydro-benzo[1,2,5]thiadiazole 2,2-dioxide]	inhibition at 15 µg/mL [1]: 12%
–	–	–	COc1ccc(Oc2ccc3[nH]c(=O)[nH]c3c2)cc1 [Compound 72e, 5-(4-methoxy-phenoxy)-1,3-dihydro-benzoimidazol-2-one]	inhibition at 15 µg/mL [1]: 4%
–	–	–	COc1ccc(Oc2ccc3c(c2)NS(=O)(=O)N3S(=O)(=O)c2ccc(C)cc2)cc1 [Compound 72f, 5-(4-methoxy-phenoxy)-1-(4-toluenesulfonyl)-1,3-dihydro-benzo[1,2,5]thiadiazole 2,2-dioxide]	inhibition at 15 µg/mL [1]: 14%
